Laboratory results from ChEMBL document CHEMBL4177730, “Rational modification of semaxanib and sunitinib for developing a tumor growth inhibitor targeting ATP binding site of tyrosine kinase” (2018).
Active and inactive are the calls of the source. The rule behind the calls is not given here.

Experiments:
[1] = test system: OVCAR-5; assay: Growth inhibition of human OVCAR5 cells at 10 uM after 48 hrs by sulforhodamine B assay; assay type: functional, cell-based
[2] = test system: NCI-H322M; assay: Growth inhibition of human NCI-H322M cells after 48 hrs by sulforhodamine B assay; assay type: functional
[3] = test system: SK-OV-3; assay: Growth inhibition of human SKOV3 cells after 48 hrs by sulforhodamine B assay; assay type: functional; conditions: SK-OV-3, 48 h
[4] = test system: RXF 393; assay: Growth inhibition of human RXF393 cells after 48 hrs by sulforhodamine B assay; assay type: functional; conditions: RXF 393, 48 h
[5] = test system: TK-10; assay: Growth inhibition of human TK10 cells after 48 hrs by sulforhodamine B assay; assay type: functional; conditions: TK-10, 48 h
[6] = test system: MDA-MB-231; assay: Growth inhibition of human MDA-MB-231 cells at 10 uM after 48 hrs by sulforhodamine B assay; assay type: functional, cell-based
[7] = test system: 786-0; assay: Growth inhibition of human 786-0 cells at 10 uM after 48 hrs by sulforhodamine B assay; assay type: functional, cell-based
[8] = test system: MCF7; assay: Growth inhibition of human MCF7 cells after 48 hrs by sulforhodamine B assay; assay type: functional; conditions: MCF7, 48 h
[9] = test system: HCT-15; assay: Growth inhibition of human HCT15 cells at 10 uM after 48 hrs by sulforhodamine B assay; assay type: functional, cell-based
[10] = test system: HCT-15; assay: Growth inhibition of human HCT15 cells after 48 hrs by sulforhodamine B assay; assay type: functional; conditions: HCT-15, 48 h
[11] = test system: HOP-62; assay: Growth inhibition of human HOP62 cells at 10 uM after 48 hrs by sulforhodamine B assay; assay type: functional, cell-based
[12] = test system: SN12C; assay: Growth inhibition of human SN12C cells after 48 hrs by sulforhodamine B assay; assay type: functional
[13] = test system: T47D; assay: Growth inhibition of human T47D cells after 48 hrs by sulforhodamine B assay; assay type: functional
[14] = test system: MDA-MB-435; assay: Growth inhibition of human MDA-MB-435 cells after 48 hrs by sulforhodamine B assay; assay type: functional; conditions: MDA-MB-435, 48 h
[15] = test system: OVCAR-3; assay: Growth inhibition of human OVCAR3 cells after 48 hrs by sulforhodamine B assay; assay type: functional; conditions: OVCAR-3, 48 h
[16] = test system: ACHN; assay: Growth inhibition of human ACHN cells at 10 uM after 48 hrs by sulforhodamine B assay; assay type: functional, cell-based
[17] = test system: LOX IMVI; assay: Growth inhibition of human LOXIMVI cells at 10 uM after 48 hrs by sulforhodamine B assay; assay type: functional, cell-based
[18] = test system: SNB-75; assay: Growth inhibition of human SNB75 cells after 48 hrs by sulforhodamine B assay; assay type: functional; conditions: SNB-75, 48 h
[19] = test system: EKVX; assay: Growth inhibition of human EKVX cells after 48 hrs by sulforhodamine B assay; assay type: functional
[20] = test system: MCF7; assay: Growth inhibition of human MCF7 cells at 10 uM after 48 hrs by sulforhodamine B assay; assay type: functional, cell-based
[21] = test system: SK-MEL-28; assay: Growth inhibition of human SK-MEL-28 cells at 10 uM after 48 hrs by sulforhodamine B assay; assay type: functional, cell-based
[22] = test system: K562; assay: Growth inhibition of human K562 cells at 10 uM after 48 hrs by sulforhodamine B assay; assay type: functional, cell-based
[23] = test system: SNB-19; assay: Growth inhibition of human SNB19 cells at 10 uM after 48 hrs by sulforhodamine B assay; assay type: functional, cell-based
[24] = test system: SK-OV-3; assay: Growth inhibition of human SKOV3 cells at 10 uM after 48 hrs by sulforhodamine B assay; assay type: functional, cell-based
[25] = test system: SF-268; assay: Growth inhibition of human SF268 cells after 48 hrs by sulforhodamine B assay; assay type: functional; conditions: SF-268, 48 h
[26] = test system: U-251; assay: Growth inhibition of human U251 cells at 10 uM after 48 hrs by sulforhodamine B assay; assay type: functional, cell-based
[27] = test system: SW-620; assay: Growth inhibition of human SW620 cells after 48 hrs by sulforhodamine B assay; assay type: functional; conditions: SW-620, 48 h
[28] = test system: A549; assay: Growth inhibition of human A549/ATCC cells at 10 uM after 48 hrs by sulforhodamine B assay; assay type: functional, cell-based
[29] = test system: SK-MEL-2; assay: Growth inhibition of human SK-MEL-2 cells at 10 uM after 48 hrs by sulforhodamine B assay; assay type: functional, cell-based
[30] = test system: BT-549; assay: Growth inhibition of human BT549 cells at 10 uM after 48 hrs by sulforhodamine B assay; assay type: functional, cell-based
[31] = test system: OVCAR-4; assay: Growth inhibition of human OVCAR4 cells after 48 hrs by sulforhodamine B assay; assay type: functional; conditions: OVCAR-4, 48 h
[32] = test system: U-251; assay: Growth inhibition of human U251 cells after 48 hrs by sulforhodamine B assay; assay type: functional; conditions: U-251, 48 h
[33] = test system: 786-0; assay: Growth inhibition of human 786-0 cells after 48 hrs by sulforhodamine B assay; assay type: functional; conditions: 786-0, 48 h
[34] = test system: A549; assay: Growth inhibition of human A549/ATCC cells after 48 hrs by sulforhodamine B assay; assay type: functional; conditions: A549, 48 h
[35] = test system: KM12; assay: Growth inhibition of human KM12 cells after 48 hrs by sulforhodamine B assay; assay type: functional; conditions: KM12, 48 h
[36] = test system: NCI-H23; assay: Growth inhibition of human NCI-H23 cells at 10 uM after 48 hrs by sulforhodamine B assay; assay type: functional, cell-based
[37] = test system: PC-3; assay: Growth inhibition of human PC3 cells after 48 hrs by sulforhodamine B assay; assay type: functional; conditions: PC-3, 48 h
[38] = test system: HL-60(TB); assay: Growth inhibition of human HL-60(TB) cells at 10 uM after 48 hrs by sulforhodamine B assay; assay type: functional, cell-based
[39] = read-out: LC50 (the source's name)

O=C1/C(=C\c2cccn2Cc2ccccc2)c2ccccc2N1c1c(Cl)cccc1Cl
growth inhibition (GI) [1]: Active | GI50 [2]: 14.8 µM | TGI [2]: > 100 µM | CC50 [2, 39]: > 100 µM | GI50 [3]: > 100 µM | TGI [3]: > 100 µM | CC50 [3, 39]: > 100 µM | GI50 [4]: > 100 µM | TGI [4]: > 100 µM | CC50 [4, 39]: > 100 µM | GI50 [5]: 0.64 µM | TGI [5]: > 100 µM | CC50 [5, 39]: > 100 µM | growth inhibition (GI) [6]: Active | growth inhibition (GI) [7]: Active | GI50 [8]: 0.035 µM | TGI [8]: > 100 µM | CC50 [8, 39]: > 100 µM | growth inhibition (GI) [9]: Active | GI50 [10]: 0.37 µM | TGI [10]: > 100 µM | CC50 [10, 39]: > 100 µM | growth inhibition (GI) [11]: Active | GI50 [12]: > 100 µM | TGI [12]: > 100 µM | CC50 [12, 39]: > 100 µM | GI50 [13]: 0.21 µM | TGI [13]: 1.86 µM | CC50 [13, 39]: > 100 µM | GI50 [14]: > 100 µM | TGI [14]: > 100 µM | CC50 [14, 39]: > 100 µM | GI50 [15]: 0.74 µM | TGI [15]: > 100 µM | CC50 [15, 39]: > 100 µM | growth inhibition (GI) [16]: Active | growth inhibition (GI) [17]: Active | GI50 [18]: 5.24 µM | TGI [18]: > 100 µM | CC50 [18, 39]: > 100 µM | GI50 [19]: 0.41 µM | TGI [19]: 7.94 µM | CC50 [19, 39]: > 100 µM | growth inhibition (GI) [20]: Active | growth inhibition (GI) [21]: Active | growth inhibition (GI) [22]: Active | growth inhibition (GI) [23]: Active | growth inhibition (GI) [24]: Active | GI50 [25]: > 100 µM | TGI [25]: > 100 µM | CC50 [25, 39]: > 100 µM | growth inhibition (GI) [26]: Active | GI50 [27]: > 100 µM | TGI [27]: > 100 µM | CC50 [27, 39]: > 100 µM | growth inhibition (GI) [28]: Active | growth inhibition (GI) [29]: Active | growth inhibition (GI) [30]: Active | GI50 [31]: 0.12 µM | TGI [31]: > 100 µM | CC50 [31, 39]: > 100 µM | GI50 [32]: > 100 µM | TGI [32]: > 100 µM | CC50 [32, 39]: > 100 µM | GI50 [33]: > 100 µM | TGI [33]: > 100 µM | CC50 [33, 39]: > 100 µM | GI50 [34]: 8.31 µM | TGI [34]: > 100 µM | CC50 [34, 39]: > 100 µM | GI50 [35]: 0.38 µM | TGI [35]: > 100 µM | CC50 [35, 39]: > 100 µM | growth inhibition (GI) [36]: Active | GI50 [37]: 6.91 µM | TGI [37]: > 100 µM | CC50 [37, 39]: > 100 µM | growth inhibition (GI) [38]: Active
